In patent US8691818B2, “Cyclic triazo and diazo sodium channel blockers” (University Of Greenwich, priority 2008, dated 2014):
Where a name gives a salt, the structure may show the parent alone.

Columns and labels:
[1] = molecular target: T1, DiHydroFolate Reductase (DHFR) (Rattus norvegicus, UniProt Q920D2); test: Inhibition of binding of [3H]methotrexate to rat liver homogenate supernatant; settings: for inhibition at 125 µM: read-out: [3H]mtx binding (% inhibition @ 125 μM); for inhibition at 99 µM: read-out: [3H]mtx binding % inhibition (* 99 μM, *** uses fresh batch of supernatant), 99 μM, fresh batch of supernatant
T1 construct: from tissue; host or cells: rat liver homogenate supernatant
T1 sequence (Q920D2 1-187): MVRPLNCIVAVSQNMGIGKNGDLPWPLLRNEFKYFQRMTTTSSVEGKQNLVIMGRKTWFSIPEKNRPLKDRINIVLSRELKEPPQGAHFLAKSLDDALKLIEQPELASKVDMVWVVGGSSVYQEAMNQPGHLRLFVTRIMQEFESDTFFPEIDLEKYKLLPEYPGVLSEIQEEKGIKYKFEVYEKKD
Protocol: All steps were carried out at 4° (or on ice). Freshly dissected rat liver was dissected into 0.25M ice-cold Sucrose and subsequently homogenised (U-turrax) in 50 mM pH 6.0 phosphate buffer (10 ml/g tissue) containing 15 mM Dithiothreitol. The resulting homogenate was centrifuged@47,500×g for 20 min and supernatant (filtered through cotton wool to remove fatty lumps) stored @ −80° before use (Rothenberg et al).
Inhibition of the binding of [^3H]methotrexate to rat liver homogenate supernatant fractions were carried out essentially as described by Arons et al, 1975.
(§1) Data are presented as mean±sem of number of experiments indicated in brackets.

[2] = test system: sodium channel; test: [14C]guanidine flux: veratrine-evoked uptake of [14C]guanidine into rat forebrain synaptosomes (primary sodium channel assay); format: biochemical; settings: 30° for 2½ min
Protocol: The screening strategy is designed to select compounds with appropriate sodium channel blocking activity and low side effect liability. To this end all compounds are processed through the primary sodium channel assay (veratrine-evoked uptake of [^14C]guanidine into rat forebrain synaptosomes) and IC50 values computed from generated concentration-effect curves.
Experiments were performed using forebrain (whole brain less cerebellum/medulla) from Male Wistar rats weighing 175-250 g. All efforts were made to reduce the number of animals used and all experiments were carried out in accordance with the UK Animals (Scientific Procedures) Act, 1986 and the European Community Council Directive of 24 Nov. 1986 (86/609/EEC). Following killing of animals by stunning and decapitation, the forebrain (whole brain less cerebellum/medulla) was rapidly dissected and transferred to a weighed tube containing ice-cold 0.25M sucrose.
Synaptosomes (heavy and light mitochondrial fraction containing synaptosomes) were prepared by transferring the forebrain (of known wet weight) to a glass Potter vessel to which 9 volumes ice-cold 0.25M sucrose had been added and homogenising, using a teflon pestle, by 8 ‘up and down strokes’ of a Braun Potter S motor driven homogeniser set to 900 rpm. The resulting homogenate was centrifuged at 1036×g at 4° for 10 min and the supernatant collected. The remaining pellet was resuspended, as above, in fresh ice-cold 0.25M sucrose and the centrifugation step repeated. The supernatant fractions were pooled and centrifuged at 40,000×g (average) at 4° for 15 min and the resulting pellet resuspended in the appropriate assay buffer at a concentration of 20-25 mg wet weight per ml appropriate assay buffer.
Both assays were carried out using 14 ml polypropylene test tubes to which a range of concentrations of the compounds under test were added.
The [^14C] guanidinine flux assay was measured using the method of Pauwels P J et al (1986) but carried out@30° for 2½ min.
as §1

Row | SMILES | inhibition at 125 µM [1] [%] | IC50 [2] [µM] | further results
1 | C/C(=C\c1ccccc1)c1nnc(N)nc1N [CEN-112, 3,5-Diamino-6-[E-2-(3-phenyl)propenyl]-1,2,4-triazine] | 84 | 1000 | 
2 | Cn1nc(-c2ccc(Oc3ccc(-c4nn(C)c(=N)nc4N)cc3)cc2)c(N)nc1=N [CEN-116] | 70 | 955 | 
3 | COc1ccc2c(OC)cccc2c1-c1nnc(N)nc1N [CEN-158] |  |  | [3H]mtx binding (% inhibition @ 125 μM) ([1]; listed as 158, 125 µM): −1%; IC50 ([2]; listed as 158): > 1000 µM
4 | Nc1nnc(-c2cc(C(F)(F)F)cc(C(F)(F)F)c2)c(N)n1 [CEN-175, 3,5-Diamino-6-[3,5 (bis-trifluoromethyl)phenyl]-1,2,4-triazine] |  |  | [3H]mtx binding (% inhibition @ 125 μM) ([1]; listed as 175, 125 µM): −4%; IC50 ([2]; listed as 175): > 2000 µM
5 | CCn1nc(-c2cc(OC)c(OC)c(OC)c2)c(N)nc1=N [CEN-119, 5(3)-Amino-6-(3,4,5-trimethoxyphenyl)-2,3(2,5)-dihydro-3(5)-imino-2-ethyl-1,2,4-triazine methanesulfonate] | 52 | 1950 | 
6 | Cn1nc2c3ccccc3c3ccccc3c2nc1=N [CEN-136] | 27 | 229 | 
7 | Nc1cnc(-c2cccc3c2OC(F)(F)O3)c(N)n1 [CEN-89, 2,6-Diamino-3-(2,2-difluorobenzodioxol-4-yl)pyrazine] | 101 | 724 | 
8 | COc1cc(-c2nn(C)c(=N)nc2N)cc(OC)c1OC [CEN-101, 5(3)-Amino-6-(3,4,5-trimethoxyphenyl)-2,3(2,5)-dihydro-3(5)-imino-2-methyl-1,2,4-triazine methanesulfonate] | 65 | > 1000 | 
9 | CC(C)OCCn1nc(-c2cccc(Cl)c2Cl)c(N)nc1=N [CEN-91, 5(3)-Amino-6-(2,3-dichlorophenyl)-2,3(2,5)-dihydro-3(5)-imino-2-(2-isopropoxy)ethyl-1,2,4-triazine] | 94 | 372 | 
10 | Cn1cc(-c2cccc(Cl)c2Cl)c(N)nc1=N [CEN-43, 4(2)-Amino-5-(2,3-dichlorophenyl)-2,4(2,5)-dihydro-2(4)-imino-1-methylpyrimidine] |  |  | [3H]mtx binding (% inhibition @ 125 μM) ([1]; listed as 43, 125 µM): 20%; IC50 ([2]; listed as 43): 631 µM
11 | Nc1nnc(-c2ccc3c(c2)OC(F)(F)O3)c(N)n1 [CEN-117, 3,5-Diamino-6-[5-(2,2-difluorobenzodioxolo)]-1,2,4-triazine] | 79 | > 1000 | 
12 | Nc1nnc(-c2cccc(C(F)(F)F)c2Cl)c(N)n1 [CEN-176, 3,5-Diamino-6-(2-chloro-3-trifluoromethylphenyl)-1,2,4-triazine] | 55 | 309 | 
13 | C[n+]1cc(N)nc(N)c1-c1cc(Cl)cc(Cl)c1Cl [CEN-90] | 53 | 97.7 | 
14 | Nc1nnc(-c2cccc3c2OC(F)(F)O3)c(N)n1 [CEN-70, 3,5-Diamino-6-[4-(2,2-difluorobenzodioxolo)]-1,2,4-triazine] | 66 | 1510 | 
15 | Cn1nc(-c2ccc(Oc3ccccc3)cc2)c(N)nc1=N [CEN-102, 5(3)-Amino-6-(4-phenoxyphenyl)-2,3(2,5)-dihydro-3(5)-imino-2-methyl-1,2,4-triazine methanesulfonate] | 25 | 58.9 | 
16 | COc1ccc2c(OC)cccc2c1-c1nnc(N)nc1N [CEN-156] |  |  | [3H]mtx binding (% inhibition @ 125 μM) ([1]; listed as 156, 125 µM): 32%; IC50 ([2]; listed as 156): 246 µM
17 | Nc1nnc(-c2ccc(Oc3ccc(-c4nnc(N)nc4N)cc3)cc2)c(N)n1 [CEN-111, Bis-[3,5-Diamino-6-(4-ARYL)-1,2,4-triazine]] | 97 | 912 | 

Further lines, with some results ahead:

Row | inhibition at 125 µM [1] [%] | IC50 [2] [µM] | SMILES | further results
18 | -2 | > 2000 | Nc1nnc(-c2cccnc2Oc2ccccc2)c(N)n1 [CEN-167, 3,5-Diamino-6-[3-(2-phenoxypyidyl)]-1,2,4-triazine] | 
19 | 6 | 813 | Nc1nnc(-c2cc(F)c(Cl)nc2Cl)c(N)n1 [CEN-190, 3,5-Diamino-6-[3-(2,6-dichloro-5-fluoropyidyl)]-1,2,4-triazine] | 
20 | -2 | > 2000 | CC(C)c1cc(C(C)C)c(-c2nnc(N)nc2N)c(C(C)C)c1 [CEN-180, 3,5-Diamino-6-(2,4,6-triisopropylphenyl)-1,2,4-triazine tosylate] | 
21 | 6 | 4.9 | Cc1ccc(-c2nc(=N)n(C)nc2-c2ccc(C)cc2)cc1 [CEN-134, 3-Amino-2-methyl-5,6-bis(4-methylphenyl)-1,2,4-triazine mesylate] | 
22 | 95 | 1000 | Nc1nnc(-c2cnc(Cl)c(Cl)c2)c(N)n1 [CEN-168, 3,5-Diamino-6-[3-(5,6-dichloropyidyl)]-1,2,4-triazine] | 
23 |  | 2 | Nc1nnc(-c2cccc(OCc3ccc(C(F)(F)F)cc3C(F)(F)F)c2)c(N)n1 [CEN-171, 3,5-Diamino-6-[3-(2,4-trifluoromethylbenzyloxy)phenyl]-1,2,4-triazine] | [3H]mtx binding (% inhibition @ 125 μM) [1]: 91%
24 |  | 912 | Nc1nnc(-c2ccco2)c(-c2ccco2)n1 [CEN-196, 3-Amino-5,6-bis(2-furyl)-1,2,4-triazine] | inhibition at 99 µM [1]: 41%
25 | 3 | 871 | Cn1nc(-c2ccccc2OC(F)F)c(N)nc1=N [CEN-146, 5(3)-Amino-6-(2-difluoromethoxyphenyl)-2,3(2,5)-dihydro-3(5)-imino-2-methyl-1,2,4-triazine methanesulfonate] | 
26 | 27 | 16.2 | Cn1nc(C2(c3ccc(Cl)cc3)CCCC2)c(N)nc1=N [CEN-150, 5(3)-Amino-6-{1-[1-(4-chlorophenyl)]cyclopentyl}-2,3(2,5)-dihydro-3(5)-imino-2-methyl-1,2,4-triazine methanesulfonate] | 
27 | 88 | 1180 | Nc1nnc(-c2cccc(Cl)n2)c(N)n1 [CEN-166, 3,5-Diamino-6-[2-(6-chloropyidyl)]-1,2,4-triazine] | 
28 | 17 | > 2000 | Nc1nnc(-c2cc3ccccc3oc2=O)c(N)n1 [CEN-133] | 
29 | 89 | 43.7 | Cn1nc(-c2cc(Br)c(Br)o2)c(N)nc1=N [CEN-135, 5(3)-Amino-6-[2-(4,5-dibromofuryl)]-2,3(2,5)-dihydro-3(5)-imino-2-methyl-1,2,4-triazine methanesulfonate] | 
30 | 0 | 692 | Nc1nnc(-c2cccnc2Cl)c(N)n1 [CEN-164, 3,5-Diamino-6-[3-(2-chloropyidyl)]-1,2,4-triazine] | 
31 |  | 9 | Cn1nc(-c2sc(Cl)c(Cl)c2Cl)c(N)nc1=N [CEN-194, 5(3)-Amino-6-{2-(3,4,5-trichloro)thienyl}-2,3(2,5)-dihydro-3(5)-imino-2-methyl-1,2,4-triazine methanesulfonate] | inhibition at 99 µM [1]: -6%
32 | 31 | 1950 | Nc1nnc(-c2ccc(Cl)nc2)c(N)n1 [CEN-191, 3,5-Diamino-6-[3-(6-chloro-pyridyl)]-1,2,4-triazine] | 
33 | 4 | 23.4 | Cn1nc(C(C)(c2ccccc2)c2ccccc2)c(N)nc1=N [CEN-149, 5(3)-Amino-6-(1,1-diphenylethyl)-2,3(2,5)-dihydro-3(5)-imino-2-methyl-1,2,4-triazine methanesulfonate] | 
34 | 104 | 34 | Nc1nnc(-c2ccc(F)c(Oc3ccccc3)c2)c(N)n1 [CEN-184, 3,5-Diamino-6-(4-fluoro-3-phenoxylphenyl)-1,2,4-triazine tosylate] | 
35 | 83 | > 2000 | Nc1nnc(-c2cccc(-c3nnc(N)nc3N)c2)c(N)n1 [CEN-186] | 
36 | 76 | 2570 | Nc1nnc(-c2nc(Cl)ccc2Cl)c(N)n1 [CEN-188, 3,5-Diamino-6-[2-(3,6-dichloropyidyl)]-1,2,4-triazine] | 
